The assay concerns Cavia porcellus. Description: Anti-cardiac arrhythmia activity in anaesthetised guinea pig assessed as cumulative dose inducing prolongation of monophasic action potential duration by 10% from baseline administered as first dose infusion in 0.2 mL/kg into jugular vein catheter for 30 secs followed by next dosing after 5 mins for 6 to 10 consecutive times by electrophysiology based assay. The assay is classed as functional.
Regarding `CN(CCN1CC2CN(CCc3ccc(F)c(F)c3)CC(C1)O2)S(=O)(=O)c1ccc(C#N)cc1`, the D10 was over 5.5 mg/kg.

Consider `O=S(=O)(NCCN1CC2CN(CCc3cccc(F)c3)CC(C1)O2)c1ccc(F)cc1`, for which the D10 was over 5.5 mg/kg. Consider `N#Cc1ccc(OCCN2CC3CN(CCNS(=O)(=O)c4ccc(F)cc4F)CC(C2)O3)cc1`, for which the D10 is over 5.5 mg/kg.

For `N#Cc1ccc(S(=O)(=O)NCCCN2CC3CN(CCc4ccc(F)cc4)CC(C2)O3)cc1`, the D10 was over 5.5 mg/kg.

Turning to `CN(CCN1CC2CN(Cc3ccc(C#N)cc3F)CC(C1)O2)S(=O)(=O)c1ccc(C#N)cc1`, the D10 was over 5.5 mg/kg.

`O=S(=O)(NCCN1CC2CN(CCc3ccccc3F)CC(C1)O2)c1ccc(F)cc1`: the D10 was over 5.5 mg/kg.

For `N#Cc1ccc(S(=O)(=O)NCCCN2CC3CN(CCc4c(F)cccc4F)CC(C2)O3)cc1`, the D10 is over 5.5 mg/kg. Consider `CN(CCN1CC2CN(CCOc3ccc(C#N)cc3)CC(C1)O2)S(=O)(=O)c1ccc2c(c1)CCO2`, for which the D10 was over 5.5 mg/kg. For `N#Cc1ccc(S(=O)(=O)NCCCN2CC3CN(CCc4ccccc4F)CC(C2)O3)cc1`, the D10 was over 5.5 mg/kg.

On to `N#Cc1ccc(S(=O)(=O)NCCCN2CC3CN(CCc4cccc(F)c4)CC(C2)O3)cc1`, for which the D10 was over 5.5 mg/kg. In the case of `CN(CCN1CC2CN(CCOc3ccc(C#N)cc3F)CC(C1)O2)S(=O)(=O)c1ccc2c(c1)CCO2`, the D10 is over 5.5 mg/kg. Take `N#Cc1ccc(S(=O)(=O)NCCN2CC3CN(CCCOc4ccc(F)cc4F)CC(C2)O3)cc1`: the D10 was over 5.5 mg/kg. `N#Cc1ccc(S(=O)(=O)NCCN2CC3CN(CCc4ccc(F)cc4F)CC(C2)O3)cc1`: the D10 was over 5.5 mg/kg. For the molecule `O=S(=O)(NCCN1CC2CN(Cc3ccc(F)cc3)CC(C1)O2)c1ccc(F)cc1`, the D10 was over 5.5 mg/kg.

With `O=S(=O)(NCCN1CC2CN(CCc3ccc(F)cc3)CC(C1)O2)c1ccc(F)cc1`, the D10 was over 5.5 mg/kg. As to `N#Cc1ccc(S(=O)(=O)NCCCN2CC3CN(CCCOc4ccc(F)cc4)CC(C2)O3)cc1`, the D10 is over 5.5 mg/kg.

As for `N#Cc1ccc(CCN2CC3CN(CCNS(=O)(=O)c4ccc(F)cc4)CC(C2)O3)cc1`, the D10 is over 5.5 mg/kg. `CN(CCN1CC2CN(CCc3ccc(Cl)cc3)CC(C1)O2)S(=O)(=O)c1ccc(C#N)cc1`: the D10 was over 5.5 mg/kg. Turning to `O=S(=O)(NCCN1CC2CN(CCc3ccccc3)CC(C1)O2)c1ccc(F)cc1`, the D10 was over 5.5 mg/kg. In the case of `CN(CCN1CC2CN(CCc3ccc(F)cc3F)CC(C1)O2)S(=O)(=O)c1ccc(C#N)cc1` it was over 5.5 mg/kg. `N#Cc1ccc(S(=O)(=O)NCCN2CC3CN(Cc4noc5ccccc45)CC(C2)O3)cc1`: the D10 is over 5.5 mg/kg. `N#Cc1ccc(S(=O)(=O)NCCCN2CC3CN(CCOc4c(F)cccc4F)CC(C2)O3)cc1`: the D10 was over 5.5 mg/kg. In the case of `CN(CCN1CC2CN(CCCOc3ccc(F)cc3F)CC(C1)O2)S(=O)(=O)c1ccc(C#N)cc1`, the D10 is over 5.5 mg/kg. In the case of `N#Cc1ccc(S(=O)(=O)NCCCN2CC3CN(Cc4ccc(F)cc4)CC(C2)O3)cc1`, the D10 was over 5.5 mg/kg. On to `CN(CCN1CC2CN(CCCOc3ccc(F)cc3)CC(C1)O2)S(=O)(=O)c1ccc(C#N)cc1`, for which the D10 was over 5.5 mg/kg. As to `N#Cc1ccc(CN2CC3CN(CCNS(=O)(=O)c4ccc(F)cc4)CC(C2)O3)cc1`, the D10 was over 5.5 mg/kg. Take `N#Cc1ccc(S(=O)(=O)NCCCN2CC3CN(Cc4ccccc4)CC(C2)O3)cc1`: the D10 was over 5.5 mg/kg.

For the molecule `N#Cc1ccc(S(=O)(=O)NCCN2CC3CN(Cc4ccc(C#N)cc4F)CC(C2)O3)cc1`, the D10 is over 5.5 mg/kg. For `N#Cc1ccc(CN2CC3CN(CCCNS(=O)(=O)c4ccc(C#N)cc4)CC(C2)O3)cc1`, the D10 was over 5.5 mg/kg.

Consider `CN(CCCN1CC2CN(CCOc3ccc(C#N)cc3F)CC(C1)O2)S(=O)(=O)c1ccccc1`, for which the D10 is over 5.5 mg/kg. With `CN(CCN1CC2CN(CCOc3c(F)cccc3F)CC(C1)O2)S(=O)(=O)c1ccc(C#N)cc1`, the D10 is over 5.5 mg/kg. In the case of `N#Cc1ccc(S(=O)(=O)NCCCN2CC3CN(CCc4ccc(F)c(F)c4)CC(C2)O3)cc1`, the D10 was over 5.5 mg/kg. In the case of `CN(CCN1CC2CN(CCc3ccc(F)cc3)CC(C1)O2)S(=O)(=O)c1ccc(C#N)cc1`, the D10 is over 5.5 mg/kg.

The values are drawn from ChEMBL document CHEMBL3880410, “Novel oxabispidine compounds and their use in the treatment of cardiac arrhythmias” (2009).
